Experimental data as given in publication PMC2691528 (European Journal of Nuclear Medicine and Molecular Imaging, 2009).
Entries after “also recorded” stand apart in the source; their conditions may differ.

What was measured:
[1] = Ex vivo biodistribution of 11C-SA4503 in C6 glioma-bearing Wistar rats; settings: for SUV of 11C, C6 tumour / SUV of 11C, Cerebellum / SUV of 11C, Cerebral cortex: 60 min after injection
[2] = biological target: cellular sigma receptors (C6 rat glioma cells) (Rattus norvegicus, UniProt Q9R0C9); assay: Competition with 11C-SA4503 binding to intact C6 glioma cell monolayers; settings: for competition with 11C-SA4503 for binding to cellular sigma receptors: 50 µM competitor added to normal growth medium (DMEM with 7.5% FCS); for reduction of 11C-SA4503 radioligand binding to C6 cells: 50 µM competitor, steroid-free medium; for rank order of potency as competitor of 11C-SA4503 binding: C6 cells, both normal and steroid-depleted medium, 50 µM
cellular sigma receptors (C6 rat glioma cells), sequence (Q9R0C9 whole entry): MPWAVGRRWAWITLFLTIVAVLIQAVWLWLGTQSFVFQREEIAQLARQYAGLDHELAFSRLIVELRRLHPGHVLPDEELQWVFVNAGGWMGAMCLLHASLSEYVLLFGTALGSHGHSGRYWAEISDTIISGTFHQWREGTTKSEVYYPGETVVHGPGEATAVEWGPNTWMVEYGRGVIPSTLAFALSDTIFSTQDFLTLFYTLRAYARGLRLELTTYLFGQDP

[3] = biological target: sigma-1 receptors in tumour and brain (Rattus norvegicus, UniProt Q9R0C9); assay: microPET scanning of 11C-SA4503 in C6 glioma-bearing Wistar rats
sigma-1 receptors in tumour and brain, sequence (Q9R0C9 whole entry): as above

Plasma progesterone = settings: female rats; cited from earlier work
[4] = tested on: endogenous steroid levels in the brain (progesterone, pregnenolone); settings: male rats, sodium pentobarbital 0.2 mmol/kg i.p.; cited from earlier work
[5] = prolonged pentobarbital anaesthesia, n = 5
[6] = prolonged pentobarbital anaesthesia vs control
[7] = progesterone 3 x 10 mg i.p. in arachid oil vs arachid oil

COc1ccc(CCN2CCN(CCCc3ccccc3)CC2)cc1OC [11C-SA4503]
SUV of 11C, C6 tumour ([1]; control (arachid oil), n = 4): 0.83
SUV of 11C, Cerebellum ([1]; control (arachid oil), n = 4): 1.66
SUV of 11C, Cerebral cortex ([1]; control (arachid oil), n = 4): 1.50
SUV of 11C, C6 tumour [1, 5]: 1.52
SUV of 11C, Cerebellum [1, 5]: 2.41
SUV of 11C, Cerebral cortex [1, 5]: 2.38

C[C@]12CC[C@H](OS(=O)(=O)[O-])CC1=CC[C@@H]1[C@@H]2CC[C@]2(C)C(=O)CC[C@@H]12.[Na+] [DHEA-S, dehydroepiandrosterone 3-sulphate sodium salt]
competition with 11C-SA4503 for binding to cellular sigma receptors [2]: no statistically significant effect
reduction of 11C-SA4503 radioligand binding to C6 cells [2]: significant decrease
rank order of potency as competitor of 11C-SA4503 binding [2]: progesterone > androstanolone = testosterone = allopregnanolone > DHEA-S

C[C@]12CCC(=O)C[C@@H]1CC[C@@H]1[C@@H]2CC[C@]2(C)[C@@H](O)CC[C@@H]12 [androstanolone, 5α-androstan-17β-ol-3-one]
competition with 11C-SA4503 for binding to cellular sigma receptors [2]: measurable competition
rank order of potency as competitor of 11C-SA4503 binding [2]: progesterone > androstanolone = testosterone = allopregnanolone > DHEA-S

CCCC(C)C1(CC)C(=O)NC(=O)NC1=O (stereo not drawn) [pentobarbital]
inhibition of 11C-SA4503 binding to C6 cells ([2]; up to 1 mM in normal medium): did not result in any inhibition
effect on kinetics of 11C-SA4503 radioactivity in blood pool (right lung) ([3]; prolonged pentobarbital anaesthesia (>3.5 h) vs short (<20 min)): unaffected; also recorded: did not significantly affect
effect on amount of 11C-SA4503 radioactivity in the liver (biodistribution) [1, 6]: significantly decreased
effect on plasma levels of 11C-SA4503 radioactivity (biodistribution) [1, 6]: not changed
effect on sigma ligand binding in C6 tumour, brain (cerebellum, cerebral cortex), bone, bone marrow, large intestine, blood cells and spleen (biodistribution) [1, 6]: significant increase
effect on plasma progesterone (Plasma progesterone): decreased
decline of endogenous steroid levels in the brain (progesterone, pregnenolone) [4]: > 70%

CC(=O)[C@H]1CC[C@H]2[C@@H]3CCC4=CC(=O)CC[C@]4(C)[C@H]3CC[C@]12C [progesterone]
effect on 11C-SA4503 tracer kinetics in blood pool (microPET) [3, 7]: did not significantly affect; also recorded: not accompanied by any significant change
effect on 11C-SA4503 tracer kinetics in brain (microPET) [3, 7]: did not significantly affect
decrease of sigma ligand (11C-SA4503) binding in C6 tumour (biodistribution) ([1]; progesterone 3 x 10 mg i.p. vs arachid oil, 60 min after tracer): 31%

C[C@]12CC[C@H]3[C@@H](CCC4=CC(=O)CC[C@@]43C)[C@@H]1CC[C@@H]2O [testosterone]
competition with 11C-SA4503 for binding to cellular sigma receptors [2]: measurable competition
reduction of 11C-SA4503 radioligand binding to C6 cells [2]: 40%
rank order of potency as competitor of 11C-SA4503 binding [2]: progesterone > androstanolone = testosterone = allopregnanolone > DHEA-S
